These results are taken from patent US20260053747A1, “RECONSTITUTED HIGH-DENSITY LIPOPROTEIN NANOPARTICLES COMPRISING CHOLESTEROL” (MEPSGEN CO., LTD., priority 2023, published 2026).

Broadly, the IC50 is the concentration needed to halve the response being measured. Read a low IC50 as greater potency.

Series [1] deals with ABCA1 protein in PDAC cells. Particulars: PDAC cells (Raimund O, Life Sci Alliance, 2022); cited from earlier work.
A further series concerns hBMECs. Kind of series: Toxicity (cell survival rate) in hBMECs. Particulars: up to 5 μg/mL, 8 hours. Type of series: cell-based, human. The procedure: (§1) The toxicity of 24HC-containing rHDL nanoparticles toward hBMECs, iBMECs, pericytes, and normal brain astrocytes, which constitute the BBB until the nanoparticles penetrate the BBB and reach the GBM, was evaluated. hBMECs, iBMECs, pericytes, and astrocytes were seeded into a 96-well cell culture plate. Pericytes were cultured in PM medium, astrocytes were cultured in the same culture medium as described in Example 1, and hBMEC and iBMEC cells were cultured in the same culture medium as described in Example 6. After 24 hours of incubation, the cells were treated with the nanoparticles according to the present invention at concentrations ranging from Oto 5 μg/mL, and the cell survival rate (%) was evaluated after 8 hours of incubation. […] In addition, it was confirmed that the nanoparticles are not toxic to normal brain cells other than GBM.

A further series deals with iBMECs. Briefly: Toxicity (cell survival rate) in iBMECs. It counts as cell-based, human. Particulars: up to 5 μg/mL, 8 hours. The procedure:
as §1

A further series concerns pericytes. Kind of series: Toxicity (cell survival rate) in pericytes. Type of series: cell-based. Particulars: up to 5 μg/mL, 8 hours. As to the method: as §1
The next series has as its system normal brain astrocytes. Briefly: Toxicity (cell survival rate) in astrocytes. It counts as cell-based. Particulars: up to 5 μg/mL, 8 hours. The procedure: as §1
For series [2], the system named is LDLR mRNA expression in U87MG cells. Kind of series: qPCR of LDLR mRNA in U87MG. Particulars: 1 μg/mL of 24HC, 24 hours. It counts as cell-based. The source says:
(§2) 24HC is an endogenous LXR agonist and is known to induce the expression of genes responsible for cholesterol efflux, such as ABCA1 and ABCG1, thereby inducing intracellular cholesterol efflux, and to inhibit exogenous cholesterol uptake by downregulating LDLR. Accordingly, we anticipated that treatment of GBM with 24HC-containing rHDL nanoparticles would result in a greater decrease in LDLR expression and an increase in ABCA1 expression due to the action of 24HC, compared to the treatment with 24HC alone. Therefore, U87MG and LN229 cells were treated with 24HC, 24HC-containing rHDL nanoparticles, and rHDL nanoparticles, and the changes in LDLR and ABCA1 mRNA expression were confirmed using qPCR (real-time polymerase chain reaction). U87MG and LN229 cells were seeded at 0.5×10^5 cells/well in a 6-well cell culture plate and cultured for 24 hours under the conditions described in Example 1 above. In qPCR experiments, U87MG cells were treated with 1 μg/mL of 24HC for 24 hours, and LN229 cells were treated with 5 μg/mL of 24HC for 24 hours, and changes in LDLR mRNA were confirmed. […] In the case of rHDL nanoparticles, the amount of apolipoprotein E3 in the 24HC-containing rHDL nanoparticles was quantified using a BCA assay, and the same amount of apolipoprotein E3 corresponding to the 24HC treatment concentration was calculated prior to treatment with rHDL nanoparticles.

The test system of series [3] is LDLR mRNA expression in LN229 cells. Kind of series: qPCR of LDLR mRNA in LN229. It counts as cell-based. Particulars: LN229, 5 μg/mL of 24HC, 24 hours.
Description: as §2
In general terms: Real-time PCR tracks product formation cycle by cycle.

Series [4] has as its system ABCA1 mRNA expression in U87MG cells. Briefly: qPCR of ABCA1 mRNA in U87MG. It counts as cell-based. Particulars: 1 μg/mL of 24HC, 4 hours.
Description: as §2

In series [5] the test system is ABCA1 mRNA expression in LN229 cells. Kind of series: qPCR of ABCA1 mRNA in LN229. It counts as cell-based. Particulars: LN229, 5 μg/mL of 24HC, 4 hours.
Description: as §2

The subject of a further series is U87MG cells. Briefly: GBM cell survival rate in U87MG. It counts as cell-based. Particulars: Homo sapiens, U-87 MG, 0-50 μg/mL, 48 hours. As to the method:
(§3) In order to determine whether cholesterol depletion caused by intracellular cholesterol efflux inhibits GBM cell proliferation and induces cell death, U87MG and LN229 cells were treated with rHDL nanoparticles, 24HC, and 24HC-containing rHDL nanoparticles, and the cell survival rate was evaluated. After 24 hours of incubation, the cells were treated with the nanoparticles according to the present invention at concentrations of 0-50 μg/mL, and the cell survival rate (%) was evaluated after 48 hours of incubation.

In the next series the test system is LN229 cells. Kind of series: GBM cell survival rate in LN229. Type of series: cell-based. Particulars: Homo sapiens, LN-229, 0-50 μg/mL, 48 hours. The procedure:
as §3

In series [6] the test system is LDLR mRNA expression in GBM #P1 and GBM #P2 cells. Kind of series: qPCR of LDLR mRNA in patient-derived GBM cells. Type of series: cell-based. Particulars: GBM #P1 and GBM #P2, 2 μg/mL of 24HC, 4 hours. As to the method:
GBM #P1 and GBM #P2 cells were treated with 24HC, 24HC-containing rHDL nanoparticles, and rHDL nanoparticles, and the changes in LDLR and ABCA1 mRNA expression were confirmed using qPCR. GBM #P1 and GBM #P2 cells were seeded at 0.5×10^5 cells/well in a 6-well cell culture plate and were cultured for 24 hours. The cells were cultured under the conditions as described in Example 12 above. GBM #P1 and GBM #P2 cells were treated with 24HC and 24HC-containing rHDL nanoparticles at a concentration of 2 μg/mL of 24HC for 4 hours. In the case of rHDL nanoparticles, the amount of apolipoprotein E3 in the 24HC-containing rHDL nanoparticles was quantified using a BCA assay, and then the same amount of apolipoprotein E3 corresponding to the 24HC treatment concentration was calculated prior to treatment with rHDL nanoparticles.

The test system of the next series is GBM #P1 cells. Briefly: Cell viability in patient-derived GBM #P1. Type of series: cell-based. Particulars: 0-50 μg/mL, 48 hours. As to the method:
(§4) In order to determine whether cholesterol depletion due to intracellular cholesterol efflux inhibits GBM cell proliferation and induces cell death, GBM #P1 and GBM #P2 cells were treated with rHDL nanoparticles, 24HC, and 24HC-containing rHDL nanoparticles, and cell viability was evaluated. After 24 hours of incubation, the cells were treated with 0-50 μg/mL of the nanoparticles, and the cell viability (%) was assessed after 48 hours of incubation.

In another series the test system is GBM #P2 cells. Briefly: Cell viability in patient-derived GBM #P2. Particulars: 0-50 μg/mL, 48 hours. It counts as cell-based. The procedure: as §4

Turning to `O=S(=O)(c1ccccc1)N(CC(F)(F)F)c1ccc(C(O)(C(F)(F)F)C(F)(F)F)cc1` [Formulation T0901317], in series [1], the “Expression of the ABCA1 protein” value is reported as “increased the expression of the ABCA1 protein”.

Regarding `CC(C)C(O)CC[C@@H](C)[C@H]1CC[C@H]2[C@@H]3CC=C4C[C@@H](O)CC[C@]4(C)[C@H]3CC[C@]12C` (some centres unmarked) [Formulation 24HC, 24-hydroxycholesterol], the “Toxicity in hBMECs” value in the series with hBMECs is “none of the rHDL nanoparticles, 24HC, or 24HC-containing rHDL nanoparticles exhibited toxicity”. Besides, in the series on iBMECs, the “Toxicity in iBMECs” value was “none of the rHDL nanoparticles, 24HC, or 24HC-containing rHDL nanoparticles exhibited toxicity”. Besides, in the series on pericytes, the Toxicity in pericytes result is “none of the rHDL nanoparticles, 24HC, or 24HC-containing rHDL nanoparticles exhibited toxicity”. For the same compound, the Toxicity in astrocytes result with normal brain astrocytes is “none of the rHDL nanoparticles, 24HC, or 24HC-containing rHDL nanoparticles exhibited toxicity”. Also, the “Level of LDLR mRNA expression compared to the control group” value in [2] and in [3] was “decreased” throughout. For the same compound, the “Level of ABCA1 mRNA expression compared to the control group” value in [4] and in series [5] was “increased” throughout. Further, the IC50 was found to be 6.7 µg/mL in the series with U87MG cells, 12.8 µg/mL in the series on LN229 cells, 40.2 µg/mL in the series with GBM #P1 cells and 13.8 µg/mL in the series on GBM #P2 cells. The “Level of LDLR mRNA expression, lower compared to the control group” value in series [6] is recorded as “significantly reduced”.
